From US4269842A, “Method for treating rhinoviral complaints” (Rhone-Poulenc Industries, priority 1979, dated 1981)
In brackets after ≈: the same amount, converted by molar mass.

Experiments:
in vitro = type: cell-based; settings: human, mcr-5 fibroblasts
[1] = test system: Rhinovirus type 1 A (R 2060 strain); assay: Inhibition of cytopathogenic effect of rhinovirus type 1 A in human fibroblast cultures; type: cell-based, human rhinovirus type 1 A; settings: Enterovirus, 37° C., 3-4 days; for MIC: human fibroblasts, prevention of cytopathogenic effect, read-out: Minimum inhibitory concentration, Rhinovirus type 1 A; for inhibition at 15 µg/mL: Fibroblast, at 15 μg/cm^3, human fibroblasts, read-out: Inhibition of cytopathogenic effect, Rhinovirus type 1 A (printed in minimum inhibitory concentration column)
Protocol: (§1) The type 1 A (R 2060 strain) and type 1 B (R 1112 strain) human rhinoviruses have the property of forming foci of necrosis (cytopathogeniceffect) on single-layer cell cultures. The compounds of the formula (I), which prevent the formation of these foci, have been selected as active substances.
(§2) Decreasing concentrations of the same solution or suspension of the compound under test are added to fresh identical cell cultures, the highest concentration being the maximum non-cytotoxic concentration. About one hour after the compounds have been added, the cultures are inoculated with 0.2 cm^3 of a suitably diluted suspension of virus (in isotonic phosphate buffer), which is capable of destroying about 75% of cells (cytopathogenic effect). 5 Control cultures (without test compound) are also inoculated. All the cultures are then incubated at 37° C. in a "roller" tissue culture apparatus at the same time as 2 control cultures (without test compound or virus) which have received 0.2 cm^3 of isotonic phosphate buffer. 3-4 Days after the start of the experiment, the cytopathogenic effect of the virus is examined under a microscope. The active compounds are those which have prevented the appearance of the cytopathogenic effect, and those which have inhibited it by at least 50% are considered to be partially active.

[2] = test system: Rhinovirus type 1 B (R 1112 strain); assay: Inhibition of cytopathogenic effect of rhinovirus type 1 B in human fibroblast cultures; type: cell-based, human rhinovirus type 1 B; settings: Enterovirus, human fibroblasts, 37° C., 3-4 days, prevention of cytopathogenic effect, read-out: Minimum inhibitory concentration, Rhinovirus type 1 B
Protocol: as §1, §2

Structure (SMILES)	MNTC (in vitro)	MIC [1]	MIC [2]	inhibition at 15 µg/mL [1]
c1ccc2c(c1)C[C@H]1CSC(=Nc3cccc4cnccc34)N1C2 [Compound 5]	> 60 µg/mL	0.7 µg/mL (≈ 2.11 µM)	0.7 µg/mL (≈ 2.11 µM)	–
Cc1cc2c(N=C3SC[C@@H]4Cc5ccccc5CN34)cccc2cn1 [Compound 6, (S)-3-(3-methylisoquinol-5-yl)-imino-1,5,10,10a-tetrahydrothiazolo[3,4-b]isoquinoline]	30 µg/mL	1.5 µg/mL (≈ 4.34 µM)	1.5 µg/mL (≈ 4.34 µM)	–
c1cncc(N=C2SC[C@@H]3Cc4ccccc4CN23)c1 [Compound 1]	> 30 µg/mL	15 µg/mL (≈ 53.3 µM)	0.15 µg/mL (≈ 0.533 µM)	–
Fc1ncccc1N=C1SC[C@@H]2Cc3ccccc3CN12 [Compound 3, (S)-3-[(2-fluoropyrid-3-yl)-imino]-1,5,10,10a-tetrahydrothiazolo[3,4-b]-isoquinoline]	15 µg/mL	15 µg/mL (≈ 50.1 µM)	0.016 µg/mL (≈ 0.0534 µM)	–
COc1ncccc1N=C1SC[C@@H]2Cc3ccccc3CN12 [Compound 4, (S)-3-[(2-methoxypyrid-3-yl)-imino]-1,5,10,10a-tetrahydrothiazolo[3,4-b]isoquinoline]	15 µg/mL	–	1.5 µg/mL (≈ 4.82 µM)	≥ 50%
Clc1ncccc1N=C1SC[C@@H]2Cc3ccccc3CN12 [Compound 2, (S)-3-[(2-chloropyrid-3-yl)-imino]-1,5,10,10a-tetrahydrothiazolo[3,4-b]isoquinoline]	15 µg/mL	–	0.016 µg/mL (≈ 0.0507 µM)	≥ 50%
